Experimental data reported in PubChem BioAssay (NCI).
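96-well plates; 48 h exposure; 5 concentrations. Endpoints by linear interpolation between flanking doses. Not reached: highest tested concentration assigned. The concentration for full growth arrest is given as TGI.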

Legend:
Assay in all cases: inhibition of tumour cell growth, NCI panel, 48 h
786-0 renal = system: 786-0 renal
A498 renal = system: A498 renal
A549 NSCLC = system: A549 NSCLC
ACHN renal = system: ACHN renal
CAKI-1 renal = system: CAKI-1 renal
CCRF-CEM leukemia = system: CCRF-CEM leukemia
COLO 205 colon = system: COLO 205 colon
DLD-1 colon = system: DLD-1 colon
DMS 114 small cell lung = system: DMS 114 small cell lung
DMS 273 small cell lung = system: DMS 273 small cell lung
EKVX NSCLC = system: EKVX NSCLC
HCC-2998 colon = system: HCC-2998 colon
HCT-116 colon = system: HCT-116 colon
HCT-15 colon = system: HCT-15 colon
HL-60(TB) leukemia = system: HL-60(TB) leukemia
HOP-18 NSCLC = system: HOP-18 NSCLC
HOP-62 NSCLC = system: HOP-62 NSCLC
HOP-92 NSCLC = system: HOP-92 NSCLC
HT29 colon = system: HT29 colon
IGROV1 ovarian = system: IGROV1 ovarian
K-562 leukemia = system: K-562 leukemia
KM12 colon = system: KM12 colon
KM20L2 colon = system: KM20L2 colon
LOX IMVI melanoma = system: LOX IMVI melanoma
LXFL 529 NSCLC = system: LXFL 529 NSCLC
M14 melanoma = system: M14 melanoma
MALME-3M melanoma = system: MALME-3M melanoma
MOLT-4 leukemia = system: MOLT-4 leukemia
NCI-H226 lung = system: NCI-H226 lung
NCI-H23 lung = system: NCI-H23 lung
NCI-H460 lung = system: NCI-H460 lung
NCI-H522 lung = system: NCI-H522 lung
OVCAR-3 ovarian = system: OVCAR-3 ovarian
OVCAR-4 ovarian = system: OVCAR-4 ovarian
OVCAR-5 ovarian = system: OVCAR-5 ovarian
OVCAR-8 ovarian = system: OVCAR-8 ovarian
RPMI-8226 leukemia = system: RPMI-8226 leukemia
RXF 393 renal = system: RXF 393 renal
RXF-631 renal = system: RXF-631 renal
SF-268 CNS = system: SF-268 CNS
SF-295 CNS = system: SF-295 CNS
SF-539 CNS = system: SF-539 CNS
SK-MEL-2 melanoma = system: SK-MEL-2 melanoma
SK-MEL-28 melanoma = system: SK-MEL-28 melanoma
SK-MEL-5 melanoma = system: SK-MEL-5 melanoma
SK-OV-3 ovarian = system: SK-OV-3 ovarian
SN12C renal = system: SN12C renal
SNB-19 CNS = system: SNB-19 CNS
SNB-75 CNS = system: SNB-75 CNS
SNB-78 CNS = system: SNB-78 CNS
SW-620 colon = system: SW-620 colon
TK-10 renal = system: TK-10 renal
U251 CNS = system: U251 CNS
UACC-257 melanoma = system: UACC-257 melanoma
UACC-62 melanoma = system: UACC-62 melanoma
UO-31 renal = system: UO-31 renal
XF 498 CNS = system: XF 498 CNS

Measured: TGI

CNC(C)Cc1ccccc1OC (configuration not stated)
> 100 µM: all assays above
